Among the data in PMC7472518, “Ultrasensitive Detection of Enzymatic Activity Using Single Molecule Arrays” (Journal of the American Chemical Society, 2020) are Km and IC50 values, retold here.

For assay [1], the target named is T1, Abl (Homo sapiens, UniProt P00519).
T1 construct: purchased Millipore (Burlington, MA) 14-529
The assay is described as follows: eSimoa ATP titration for Km, Abl. The assay is classed as biochemical. Particulars: calculated from the EC50 of the ATP response curve. The text has this: (§1) We first determined the Km values for Src and Abl. Different concentrations of ATP were used in the phosphorylation reaction, while the concentrations of peptide-modified beads and enzymes were kept constant.

Assay [2] has as its target T2, Src (Homo sapiens, UniProt P12931).
T2 construct: purchased Millipore (Burlington, MA) 14-326
The assay can be described thus: eSimoa ATP titration for Km, Src. The assay is classed as biochemical. As to conditions: calculated from the EC50 of the ATP response curve.
Source text: as §1

Assay [3] deals with Bcr-Abl. Particulars: read-out: IC50 (reported); cited from earlier work.

Counter-ions that a name gives are not always drawn.

T1 sequence (P00519 whole entry): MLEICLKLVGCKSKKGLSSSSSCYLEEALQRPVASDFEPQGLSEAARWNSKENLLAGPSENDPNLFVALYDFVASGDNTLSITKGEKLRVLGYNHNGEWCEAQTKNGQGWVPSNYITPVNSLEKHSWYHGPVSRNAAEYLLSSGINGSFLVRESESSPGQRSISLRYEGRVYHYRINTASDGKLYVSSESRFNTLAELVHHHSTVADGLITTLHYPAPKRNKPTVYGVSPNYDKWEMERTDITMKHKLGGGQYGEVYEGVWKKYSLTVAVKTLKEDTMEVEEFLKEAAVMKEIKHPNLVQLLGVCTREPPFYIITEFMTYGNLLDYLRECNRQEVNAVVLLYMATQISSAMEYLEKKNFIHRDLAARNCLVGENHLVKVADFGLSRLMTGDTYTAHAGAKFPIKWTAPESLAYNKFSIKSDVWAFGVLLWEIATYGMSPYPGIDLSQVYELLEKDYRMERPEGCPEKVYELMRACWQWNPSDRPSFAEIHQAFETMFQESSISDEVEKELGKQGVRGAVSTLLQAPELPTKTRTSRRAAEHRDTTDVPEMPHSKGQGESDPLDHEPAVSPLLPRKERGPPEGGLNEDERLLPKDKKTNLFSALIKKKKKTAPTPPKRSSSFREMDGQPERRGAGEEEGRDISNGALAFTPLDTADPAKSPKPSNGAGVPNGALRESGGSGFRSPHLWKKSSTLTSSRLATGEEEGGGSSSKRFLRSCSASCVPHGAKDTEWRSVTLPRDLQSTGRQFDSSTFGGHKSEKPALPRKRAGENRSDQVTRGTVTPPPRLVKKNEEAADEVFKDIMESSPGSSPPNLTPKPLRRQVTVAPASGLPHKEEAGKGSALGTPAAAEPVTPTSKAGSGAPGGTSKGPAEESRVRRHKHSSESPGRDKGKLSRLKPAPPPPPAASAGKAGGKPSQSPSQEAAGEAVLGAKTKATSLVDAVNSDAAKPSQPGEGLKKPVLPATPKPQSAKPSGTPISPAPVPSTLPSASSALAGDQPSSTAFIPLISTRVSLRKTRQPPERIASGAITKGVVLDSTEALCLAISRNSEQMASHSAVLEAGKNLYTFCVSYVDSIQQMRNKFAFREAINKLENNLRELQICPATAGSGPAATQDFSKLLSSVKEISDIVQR

Usually Km stands for the concentration of substrate that gives half-maximal velocity. For the molecule `Nc1ncnc2c1ncn2[C@@H]1O[C@H](COP(=O)(O)OP(=O)(O)OP(=O)(O)O)[C@@H](O)[C@H]1O` [ATP, adenosine 5′-triphosphate (ATP) disodium salt hydrate], the Km in assay [1] is 3.69 µM; in assay [2], 29.2 µM. For orientation: IC50 means the concentration needed to halve the response being measured. In the case of `COc1cc(Nc2c(C#N)cnc3cc(OCCCN4CCN(C)CC4)c(OC)cc23)c(Cl)cc1Cl` [bosutinib], in assay [3], the IC50 is […].
